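Assay format: 96-well plates, 48-hour exposure. At the GI50, growth is halved. TGI denotes the concentration required for complete inhibition of growth.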 Some results are limits rather than exact numbers.

Test systems include UO-31 renal; SF-268 CNS; OVCAR-5 ovarian; SK-MEL-5 melanoma; SF-295 CNS; MOLT-4 leukemia; U251 CNS; RXF 393 renal; OVCAR-4 ovarian; MDA-MB-435.
Experiment in all cases: NCI anticancer screen, dose series, 48 h

With `COc1ccc(C(=O)C(C(=O)CC(=O)Nc2cccc(C(F)(F)F)c2)c2ccc(OC)cc2)cc1` (stereo unspecified), the TGI in the assay with UO-31 renal, in the assay on SF-268 CNS, with OVCAR-5 ovarian, in the assay on SK-MEL-5 melanoma, with SF-295 CNS and with MOLT-4 leukemia was greater than 100 µM in each case. The TGI in the assay with U251 CNS, in the assay with RXF 393 renal and in the assay on OVCAR-4 ovarian was greater than 100 µM throughout.

As to `O=C1C=CC(=O)C12CCc1ccccc12`, the TGI in the assay with UO-31 renal is greater than 100 µM; with SF-268 CNS, greater than 100 µM; in the assay on OVCAR-5 ovarian it was greater than 100 µM; with SK-MEL-5 melanoma, greater than 100 µM; with SF-295 CNS it was greater than 31.6 µM; with MOLT-4 leukemia it was greater than 100 µM. Besides, the TGI in the assay with U251 CNS, in the assay on RXF 393 renal and with OVCAR-4 ovarian was greater than 100 µM throughout.

Consider `COc1ccc(NC(=O)CC/C(CC(=O)C(C)(C)C)=N\NC(=O)C(=O)NN)cc1`, for which the TGI in the assay on UO-31 renal, in the assay on SF-268 CNS, in the assay with OVCAR-5 ovarian, in the assay on SK-MEL-5 melanoma, in the assay on SF-295 CNS and in the assay on MOLT-4 leukemia was greater than 100 µM in each case. The TGI with U251 CNS, in the assay with RXF 393 renal and in the assay on OVCAR-4 ovarian was greater than 100 µM each time.

In the case of `COc1cc(OC)c(SSCCCCS(=O)O)c(OC)c1`, the TGI in the assay on UO-31 renal worked out at 40.6 µM; with SF-268 CNS, 44 µM; with OVCAR-5 ovarian, 30.5 µM; with SK-MEL-5 melanoma, 22.3 µM; in the assay with SF-295 CNS, 26.8 µM; in the assay on MOLT-4 leukemia, 26.8 µM. The figures for the TGI in the assay with U251 CNS, in the assay on RXF 393 renal and in the assay with OVCAR-4 ovarian were 27.9 µM, 27.6 µM and greater than 100 µM, respectively.

As for `CCC(=O)Nc1ccccc1C#C/C=C\C#Cc1ccccc1SC`, the GI50 with MDA-MB-435 is 1.92 µM; in the assay on UO-31 renal it was 0.838 µM; in the assay with SF-268 CNS it was 12.3 µM; in the assay on OVCAR-5 ovarian it was 33.3 µM; with SK-MEL-5 melanoma, 3.91 µM; in the assay on MOLT-4 leukemia, 4.46 µM. Besides, the GI50 with U251 CNS was 6.43 µM; in the assay on OVCAR-4 ovarian, 30.1 µM. Further, the TGI in the assay on MDA-MB-435 is 6.17 µM; in the assay with UO-31 renal it was 28.6 µM; in the assay on SF-268 CNS, greater than 100 µM; in the assay with OVCAR-5 ovarian, greater than 100 µM; in the assay with SK-MEL-5 melanoma, 17.4 µM; in the assay with MOLT-4 leukemia it was greater than 100 µM. Also, the TGI in the assay with U251 CNS is greater than 100 µM; in the assay with RXF 393 renal, 1.84 µM; in the assay on OVCAR-4 ovarian it was greater than 100 µM.

For the compound `CC1=C[C@]2(O)C(=O)[C@H](C)C[C@H]3[C@@H](CC[C@@](C)(O)/C=C\2C1=O)C3(C)C`, the TGI is greater than 100 µM in the assay on UO-31 renal; 52.1 µM in the assay with SF-268 CNS; greater than 100 µM with OVCAR-5 ovarian; 50.8 µM with SK-MEL-5 melanoma; 75.8 µM in the assay with SF-295 CNS; greater than 62 µM in the assay with MOLT-4 leukemia. Moreover, the TGI in the assay with U251 CNS was determined as 52.7 µM; in the assay with RXF 393 renal, 19.8 µM; in the assay on OVCAR-4 ovarian it was 71.6 µM.

Regarding `COc1ccccc1C(O)(c1ccccc1)C(O)(c1ccccc1)c1ccccc1OC` (stereo unspecified), the TGI with UO-31 renal, in the assay on SF-268 CNS, with OVCAR-5 ovarian, with SK-MEL-5 melanoma, in the assay with SF-295 CNS and in the assay on MOLT-4 leukemia was greater than 100 µM in each case. Further, the TGI with U251 CNS, in the assay with RXF 393 renal and with OVCAR-4 ovarian was greater than 100 µM each time.

In the case of `O=C(c1ccccc1)c1c(-c2ccccc2)sc2nc3ccccc3nc12`, the TGI in the assay with SF-268 CNS, in the assay with OVCAR-5 ovarian, in the assay on SK-MEL-5 melanoma, in the assay with SF-295 CNS, with MOLT-4 leukemia and in the assay with U251 CNS was greater than 100 µM each time. Further, the TGI in the assay on RXF 393 renal and in the assay with OVCAR-4 ovarian was greater than 100 µM in each case.

With `O=C(CCc1nnc2s/c(=C\c3ccc(Cl)c(Cl)c3)c(=O)n12)Nc1ccc(Cl)c(Cl)c1`, the TGI in the assay on UO-31 renal is greater than 100 µM; with SF-268 CNS it was greater than 100 µM; with OVCAR-5 ovarian, greater than 100 µM; with SK-MEL-5 melanoma, greater than 100 µM; in the assay on SF-295 CNS, greater than 100 µM; with MOLT-4 leukemia, 52.6 µM. Besides, the TGI in the assay on U251 CNS is greater than 100 µM; in the assay with RXF 393 renal, 74 µM; in the assay on OVCAR-4 ovarian, greater than 100 µM.

In the case of `COc1ccc(-c2cc(=O)c3ccccc3o2)cc1N`, the TGI with UO-31 renal, in the assay with SF-268 CNS, in the assay on OVCAR-5 ovarian, with SK-MEL-5 melanoma, in the assay on SF-295 CNS and in the assay with MOLT-4 leukemia was greater than 100 µM throughout. The TGI in the assay with U251 CNS, with RXF 393 renal and in the assay with OVCAR-4 ovarian was greater than 100 µM in each case.

Consider `CCN(CC)CCCNC(=O)C1COc2cc(-c3cc(=O)c4ccccc4o3)ccc2O1` (stereo unspecified), for which the TGI was greater than 100 µM with UO-31 renal; greater than 100 µM with SF-268 CNS; greater than 100 µM with OVCAR-5 ovarian; 37.6 µM with SK-MEL-5 melanoma; greater than 100 µM in the assay on SF-295 CNS; greater than 100 µM with MOLT-4 leukemia. Moreover, the TGI with U251 CNS, in the assay with RXF 393 renal and in the assay with OVCAR-4 ovarian was greater than 100 µM throughout.

On to `CC(=O)c1cccc(C)c1C(=O)O`, for which the TGI in the assay with UO-31 renal, in the assay with SF-268 CNS, in the assay on OVCAR-5 ovarian, with SK-MEL-5 melanoma, in the assay with SF-295 CNS and in the assay on MOLT-4 leukemia was greater than 100 µM in each case. In addition, the TGI in the assay with U251 CNS, in the assay on RXF 393 renal and with OVCAR-4 ovarian was greater than 100 µM throughout.

Turning to `CCOC(=O)/C(=C\c1ccc(N(CCC#N)CCC#N)cc1)NC(=O)c1cc([N+](=O)[O-])ccc1Cl`, the TGI in the assay on UO-31 renal, with SF-268 CNS, in the assay with OVCAR-5 ovarian, in the assay on SK-MEL-5 melanoma, in the assay on SF-295 CNS and in the assay with MOLT-4 leukemia was greater than 100 µM each time. Besides, the TGI in the assay with U251 CNS, in the assay on RXF 393 renal and in the assay with OVCAR-4 ovarian was greater than 100 µM throughout.

As to `CC1=C(C(=O)Nc2cc(=O)n(C)c(=O)n2C)C(c2cccc([N+](=O)[O-])c2)C(C(=O)Nc2cc(=O)n(C)c(=O)n2C)=C(C)N1`, the TGI in the assay on UO-31 renal, in the assay on SF-268 CNS, in the assay with OVCAR-5 ovarian, with SK-MEL-5 melanoma, in the assay with SF-295 CNS and in the assay on MOLT-4 leukemia was greater than 100 µM each time. In addition, the TGI in the assay with U251 CNS, with RXF 393 renal and with OVCAR-4 ovarian was greater than 100 µM each time.

For the compound `O=C1[C@H]2ON(c3ccccc3)C(c3ccccc3)[C@H]2C(=O)N1c1ccc(Cc2ccc(N3C(=O)[C@@H]4ON(c5ccccc5)C(c5ccccc5)[C@@H]4C3=O)cc2)cc1` (stereo partly specified), the TGI in the assay on UO-31 renal, in the assay on SF-268 CNS, in the assay on OVCAR-5 ovarian, with SK-MEL-5 melanoma, with SF-295 CNS and with MOLT-4 leukemia was greater than 100 µM in each case. Further, the TGI in the assay with U251 CNS, in the assay on RXF 393 renal and in the assay on OVCAR-4 ovarian was greater than 100 µM each time.

Regarding `O=C1Cc2c([nH]c3ccccc23)-c2ccccc2N1`, the TGI in the assay on UO-31 renal was greater than 100 µM; with SF-268 CNS it was greater than 100 µM; in the assay on OVCAR-5 ovarian, 67.4 µM; in the assay with SK-MEL-5 melanoma it was greater than 100 µM; in the assay with SF-295 CNS, greater than 100 µM; with MOLT-4 leukemia, 94.3 µM. Further, the TGI in the assay on U251 CNS is greater than 100 µM; in the assay with RXF 393 renal, 40.7 µM; in the assay with OVCAR-4 ovarian it was greater than 100 µM.

For the compound `C=C(C#N)C1OCC2OC(C)(C)OC21` (stereo unspecified), the TGI is greater than 100 µM in the assay with UO-31 renal; 52.5 µM in the assay with SF-268 CNS; 33.9 µM in the assay with OVCAR-5 ovarian; 34 µM with SK-MEL-5 melanoma; greater than 100 µM in the assay with SF-295 CNS; 43.3 µM in the assay on MOLT-4 leukemia. Also, the results for the TGI in the assay on U251 CNS, in the assay on RXF 393 renal and in the assay with OVCAR-4 ovarian were greater than 100 µM, 31.3 µM and 33.6 µM, respectively.

With `O=C1O[C@H](c2ccccc2)[C@@H]2CC3(CCN12)OCCO3`, the TGI with UO-31 renal, in the assay with SF-268 CNS, with OVCAR-5 ovarian, in the assay with SK-MEL-5 melanoma, in the assay on SF-295 CNS and in the assay with MOLT-4 leukemia was greater than 100 µM throughout. For the same compound, the TGI with U251 CNS, in the assay on RXF 393 renal and in the assay on OVCAR-4 ovarian was greater than 100 µM each time.

In the case of `C#CC1(OC(C)=O)CCC2C3CC=C4C=C(OC(C)=O)CCC4(C)C3CCC21C` (stereo unspecified), the TGI in the assay on MDA-MB-435 is 45.2 µM; in the assay with UO-31 renal it was 54.4 µM; in the assay on SF-268 CNS, 48.4 µM; in the assay with OVCAR-5 ovarian it was greater than 100 µM; with SK-MEL-5 melanoma, 34.1 µM; with SF-295 CNS, 62 µM. Besides, the TGI was found to be 33.3 µM in the assay with MOLT-4 leukemia, 38.9 µM with U251 CNS and 72.2 µM with OVCAR-4 ovarian.

For the compound `C[C@]12CCC(=O)C(O)=C1CC[C@@H]1C2CC[C@]2(C)NC(=O)CCC12` (stereo partly specified), the TGI with UO-31 renal, in the assay on SF-268 CNS, in the assay with OVCAR-5 ovarian, in the assay with SK-MEL-5 melanoma, with SF-295 CNS and with MOLT-4 leukemia was greater than 100 µM throughout. Also, the TGI in the assay with U251 CNS, with RXF 393 renal and with OVCAR-4 ovarian was greater than 100 µM in each case.

In the case of `CC(=O)CC(N)=O`, the TGI in the assay with UO-31 renal, in the assay with SF-268 CNS, in the assay with OVCAR-5 ovarian, in the assay on SK-MEL-5 melanoma, in the assay with SF-295 CNS and in the assay on MOLT-4 leukemia was greater than 100 µM throughout. In addition, the TGI in the assay with U251 CNS, in the assay with RXF 393 renal and in the assay on OVCAR-4 ovarian was greater than 100 µM throughout.
